The data set in a line: gradient 5% acetonitrile 3 min, to 50% in 2 min, to 85% in 15 min, held 3 min, 100 µL/min. Particulars: column: Zorbax Extend-C18 2.1 x 50 mm; eluents: water / acetonitrile, 0.1% formic acid. In outline: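 Over 3 months, pure standards in mixtures of ~100 molecules were run by HPLC coupled to a quadrupole time-of-flight mass spectrometer in positive and negative ionization mode. The column was a Zorbax Extend-C18 (2.1 × 50 mm, 1.8 μm) at 100 μL/min, eluted with water and acetonitrile each holding 0.1% formic acid, with 40 μL dead and 900 μL dwell volumes. Retention time was determined from adduct peaks chosen by software and checked manually.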
`CCN1C(=O)c2cccnc2Sc2cc(NC(=O)c3ccc(F)cc3)ccc21` returned an RP-LC retention time of 832 s.

`CC(C)Cc1ccc(S(=O)(=O)N2CCc3nc[nH]c3C2)cc1` had an RP-LC retention time of 693 s. Then `COc1ccc(NC(=O)N2CCCC(C)(C(=O)NCc3ccccc3)C2)cc1` (stereo not given), with 828 s; and `COc1ccc(-c2nc3cnccn3c2NCCC(=O)N2CCN(C(C)C)CC2)cc1`, with 565 s. In the case of `CC1CCC(C(=O)Nc2cc3c(cc2N2CCOCC2)n(C)c(=O)c(=O)n3C)CC1` (stereo not given) it was 782 s; in that of `Cc1nn(CC(=O)N2CCCCC2)c(=O)c2c(-n3cccc3)n(-c3ccc(F)cc3)nc12`, 923 s. `CC1=C(c2ccc(C)cc2)S(=O)(=O)N=C1N1CCCN(C(=O)c2ccccc2F)CC1` had an RP-LC retention time of 846 s. Turning to `COc1ccc(CNC(=O)C2CCCN(c3cnc4nc(C)c(C)nc4c3)C2)cc1` (stereo not given), the RP-LC retention time is 710 s.

`COCC(=O)N1CCC(N2C[C@H](O)C[C@H]2C(=O)NC2CCCCC2)CC1` gave an RP-LC retention time of 573 s. The compound `CCCN(C)C(=O)c1ccc(-c2nnc3ccc(NC(=O)C4CCC4)cn23)cc1` had an RP-LC retention time of 760 s. Then `CCn1c(=O)c(SCC(=O)NCCCN2CCCCC2C)nc2ccccc21` (stereo not given), with 602 s.

Take `c1ccc(CN2CCCC(c3n[nH]c(C4CC4)n3)C2)nc1` (stereo not given): the RP-LC retention time came to 465 s. In the case of `CCc1nc(-c2csc(S(=O)(=O)N3CCC(C(=O)NC(C)CC)CC3)c2)no1` (stereo not given) it was 854 s. In the case of `Cc1cccc(-c2noc(-c3ccc(N4CCN(Cc5ccc6c(c5)OCO6)CC4)nc3)n2)c1` it was 848 s; in that of `CC(C)Cn1c(=O)c(-c2ccc(C(=O)N3CCN(C)CC3)cc2)nc2ccccc21`, 670 s; in that of `NC(=O)C1CCN(C(=O)c2ccc(Cl)c(Cl)c2)CC1`, 656 s.

Compound `CCOc1ccc(N(C)S(=O)(=O)c2ccsc2C(=O)NCc2cccc(OCC)c2)cc1` returned an RP-LC retention time of 1160 s.

For `CC[C@H](C)NC(=O)Cc1nnc(-c2ccccc2)o1`, the RP-LC retention time was found to be 705 s. Then `COc1ccc(-c2nc(-c3cn(-c4cccc(Cl)c4)nn3)no2)cc1`, with 1100 s; and `CC(=O)c1cccc(NC(=O)Cn2cccc2-c2nnc(C3CCC3)o2)c1`, with 831 s; and `O=S(=O)(c1ccc2c(c1)CCC2)N1CCC(Cc2nncn2-c2ccccc2)C1` (stereo not given), with 846 s.

Consider `Cc1cccc(CNC(=O)C2CCN(S(=O)(=O)c3c(C)[nH]c(C)c3C(=O)N3CCCC3)CC2)c1`, for which the RP-LC retention time came out at 695 s. In the case of `Cc1cccn2cc(-c3cccc(S(=O)(=O)N(C)C)c3)nc12` it was 620 s.

Compound `Cc1cc(N2CCN(C)CC2)nc2ccc(NC(=O)C(C)Oc3ccc(Cl)cc3Cl)cc12` (stereo not given) showed an RP-LC retention time of 690 s. In the case of `CC(C)Cn1cc(CCNS(=O)(=O)Cc2ccc(Cl)cc2)c2cccnc21` it was 986 s; in that of `Cc1ccn2cc(C(=O)NC3CCCC3)nc2c1`, 600 s.

On to `C(=N\n1cnnc1)/c1ccc2c(c1)CCC2`, for which the RP-LC retention time worked out at 858 s. In the case of `CCCN1C(=O)c2cc(S(=O)(=O)NCc3ccc(C)o3)ccc2Oc2cccnc21` it was 995 s; in that of `C=CCn1c2ccccc2c2nnc(SCC(=O)Nc3nc(-c4ccccc4)cs3)nc21`, 1050 s; in that of `Cc1cccc(NC(=O)C2CCCN(S(=O)(=O)c3c[nH]c(C(=O)N4CCCC4)c3)C2)c1` (stereo not given), 589 s.

For `Cc1cc(C(=O)Nc2ccc(Br)cc2F)n(-c2ccccc2)n1`, the RP-LC retention time amounted to 1010 s.

`Cc1noc(-c2nc(-c3cccc(Cl)c3)no2)n1` displayed an RP-LC retention time of 1070 s. In the case of `O=C1N(c2ccccc2)CC12CCN(S(=O)(=O)c1ccccc1)CC2` it was 957 s. In the case of `CCc1nnc(-c2ccc3ccn(CC(=O)Nc4ccccc4C)c3c2)o1` it was 826 s; in that of `O=C(c1cccc2[nH]cc(CN3CCCC3)c12)N1CCN(c2ccccc2)CC1`, 706 s; in that of `CNS(=O)(=O)CCCOc1cccc2c1OC(C)(C)C2`, 776 s.

The compound `CCN(Cc1ccccc1)S(=O)(=O)c1c(C)nn(-c2ccc(-c3ccccc3)nn2)c1C` registered an RP-LC retention time of 1220 s. Then `Cc1ccc(NC(=O)C2CCCN(S(=O)(=O)c3c[nH]c(C(=O)N4CCCCCC4)c3)C2)cc1C` (stereo not given), with 871 s; and `COc1cccc(C2Cn3nnc(-c4nc(-c5ccccc5Br)no4)c3CO2)c1` (stereo not given), with 1170 s.

Compound `COc1cccc(-c2csc(Cc3nc(-c4cccc(Cl)c4)no3)n2)c1` gave an RP-LC retention time of 1280 s. In the case of `Cc1[nH]c(C(=O)N2CCCC(C(=O)NCc3ccc(OC(C)C)cc3)C2)c(C)c1C(=O)OC(C)C` (stereo not given), the RP-LC retention time turned out to be 929 s. Compound `Cc1ccc(S(=O)(=O)Nc2ccc(-c3cn4ccc(C)nc4n3)cc2)c(C)c1` displayed an RP-LC retention time of 679 s. In the case of `CCOC(=O)c1nc(Nc2ccc(CC)cc2)c2ccccc2n1` it was 932 s; in that of `COc1ccc(-c2cc3nn(CC(=O)Nc4cccc(OC)c4)c(=O)n3c(C)n2)cc1`, 681 s; in that of `Cn1cc(SCC(=O)NCc2ccco2)c2ccccc21`, 778 s. In the case of `Cc1[nH]c(C)c(S(=O)(=O)N2CCC(C(=O)NC3CC3)CC2)c1C(=O)N1CCCCC1` it was 630 s; in that of `CC(C)NC(=O)CCc1c(-c2ccccc2)nc2ccccn12`, 595 s. Then `CC(C)c1cc(N2CCN(C(=O)c3ccccc3)CC2)nc2nncn12`, with 594 s; and `CC(=O)Nc1nsc(N2CCC(C(=O)N3CCN(c4ccc(F)cc4)CC3)CC2)n1`, with 680 s.

Compound `Cc1ccc(C(=O)Nc2cccn3nc(C(C)C)nc23)cc1` had an RP-LC retention time of 950 s.

For the compound `CCCc1nc(-c2c(C)cc(C)nc2NC(=O)c2cc(C)ccc2C)no1`, the RP-LC retention time worked out at 946 s. In the case of `COc1ccc(-c2noc(C3CCCN3C(=O)c3cccc(F)c3)n2)cc1` (stereo not given) it was 946 s; in that of `CCN(CC)CCNC(=O)CN1C(=O)C2CCCCN2c2ccc(C(=O)N(C)C)cc21` (stereo not given), 601 s; in that of `CCOC(=O)c1[nH]c(C)c(CCC(=O)N2CCC(C(=O)NCCC3=CCCCC3)CC2)c1C`, 864 s.

`O=C(Cn1c(=O)oc2ccccc21)N1CCCC(COCc2ccccc2)C1` (stereo not given) yielded an RP-LC retention time of 897 s. Then `COc1ccc(CCS(=O)(=O)NCC(c2cccn2C)N2CCOCC2)cc1` (stereo not given), with 594 s; and `CCOc1ccc(-n2ccn3c(CCCC(=O)NCCc4c[nH]c5ccccc45)nnc3c2=O)cc1`, with 761 s. Then `Cn1c(CC2CCN(S(=O)(=O)Cc3ccc(F)cc3Cl)C2)nc2cccnc21` (stereo not given), with 650 s. In the case of `CS(=O)(=O)N1C[C@@H](COc2cccnc2)[C@H](c2ccccn2)C1` it was 554 s.

Consider `Cc1ccccc1-c1noc(CN2C(=O)C(C)Oc3ccccc32)n1` (stereo not given), for which the RP-LC retention time was 1110 s. In the case of `Cc1cc(NCCCC(=O)NC2CC2)n2nc(-c3cccnc3)nc2n1` it was 577 s; in that of `Cc1ccc(F)cc1S(=O)(=O)N1CCC(N2CCN(Cc3ccccc3)C(=O)C2=O)CC1`, 883 s.

On to `COCCc1noc([C@@H]2CC(F)(F)CN2C(=O)c2coc(C)n2)n1`, for which the RP-LC retention time turned out to be 705 s. In the case of `CCOc1ccc(CNc2nc3ccncc3n(C(C)C)c2=O)cc1OC` it was 584 s; in that of `O=C(Nc1ccccc1F)NC1CCN(C(=O)C2CC2)C1` (stereo not given), 673 s.

`CCC(C)NC(=O)Cn1cccc(-c2nc(-c3ccc(C)cc3)no2)c1=O` (stereo not given) displayed an RP-LC retention time of 814 s. In the case of `O=c1n(Cc2ccc(Cl)cc2)nc2ccc(S(=O)(=O)N3CCCCCC3)cn12`, the RP-LC retention time worked out at 1020 s. Then `CCCC(CCC)C(=O)Nc1cc(-c2cn3cccnc3n2)ccc1C`, with 758 s; and `O=C(NCc1cccs1)C1CCCN(S(=O)(=O)c2c[nH]c(C(=O)N3CCCC3)c2)C1` (stereo not given), with 734 s; and `CCCCOC(=O)CC1C(=O)NCCN1C(=O)c1cc(Br)ccc1OCC` (stereo not given), with 841 s. In turn, `O=C(Nc1cccn2c(C3CCC3)nnc12)c1ccncc1` displayed an RP-LC retention time of 665 s. Then `Cc1cc(N2CCN(C)CC2)nc2ccc(NC(=O)Nc3ccccc3Cl)cc12`, with 604 s. Then `O=C(Cn1ccc2ccc(N3CCOCC3)nc21)NCc1ccccc1Cl`, with 905 s; and `O=C(c1ccc(Cl)c(Cl)c1)N1CCN(c2nc(-c3ccccc3)cs2)CC1`, with 1210 s. The compound `O=C(CCc1c(-c2ccccc2)nc2ccccn12)Nc1ccc(F)cc1Cl` gave an RP-LC retention time of 795 s. In the case of `COC(=O)c1ccc(NC(=O)C(=O)NCC2CCN(Cc3ccco3)CC2)cc1` it was 573 s; in that of `O=C(NCc1csc(-c2ccccc2)n1)C1CCN(C(=O)Nc2ccccc2Cl)CC1`, 822 s; in that of `Cc1ccc(S(=O)(=O)N2CCC3(CC2)NCCN=C3NCc2cccc(F)c2)cc1`, 718 s. With `Cc1ccc(-n2ccn3cc(-c4ccc(F)cc4)nc3c2=O)cc1Cl`, the RP-LC retention time amounted to 924 s. In the case of `O=C(NC1CCCCC1)c1csc(N2CCN(c3ccccc3)CC2)n1` it was 1160 s.
